Experimental data published in PubChem BioAssay AID248 (DTP/NCI, 2004).
Several values for one entry are separate records, joined by “and”; a condition that tells them apart may be missing. Identical values can stand only once. Toxic doses and inconclusive results are not listed.

System: L1210 leukemia ip in BDF1 mice, survival T/C
Test: NCI In Vivo Anticancer Drug Screen. Data for tumor model L1210 Leukemia (intraperitoneal) in B6D2F1 (BDF1) mice
Settings: endpoint: mean survival time, higher = longer survival
Method in brief: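 Antitumor effect is assessed in tumor-bearing animals. Survival in the compound arm is compared with a vehicle-dosed control arm and expressed as their quotient.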

[1] = dose: 100.0 mg/kg/injection, schedule: Q01DX009 (ip), vehicle: Klucel (hydroxypropylcellulose) (HPC)
[2] = dose: 200.0 mg/kg/injection, schedule: Q01DX001 (ip), vehicle: Klucel (hydroxypropylcellulose) (HPC)
[3] = dose: 100.0 mg/kg/injection, schedule: Q01DX001 (ip), vehicle: saline with Tween-80
[4] = dose: 200.0 mg/kg/injection, schedule: Q01DX001 (ip), vehicle: saline with Tween-80
[5] = dose: 100.0 mg/kg/injection, schedule: Q01DX009 (ip), vehicle: saline with Tween-80
[6] = dose: 100.0 mg/kg/injection, schedule: Q04DX003 (ip), vehicle: saline with Tween-80
[7] = dose: 200.0 mg/kg/injection, schedule: Q01DX009 (ip), vehicle: saline with Tween-80
[8] = dose: 200.0 mg/kg/injection, schedule: Q04DX003 (ip), vehicle: saline with Tween-80
[9] = dose: 400.0 mg/kg/injection, schedule: Q01DX009 (ip), vehicle: saline with Tween-80
[10] = dose: 400.0 mg/kg/injection, schedule: Q04DX003 (ip), vehicle: saline with Tween-80

## N#CCC(=O)[O][Sn]([c]1ccccc1)([c]1ccccc1)[c]1ccccc1
dose: 1.56 mg/kg/injection, schedule: Q01DX009 (ip), vehicle: saline with Tween-80
  T/C: 99 % of control
dose: 3.12 mg/kg/injection, schedule: Q01DX009 (ip), vehicle: saline with Tween-80
  T/C: 92 % of control
dose: 6.25 mg/kg/injection, schedule: Q01DX009 (ip), vehicle: saline with Tween-80
  T/C: 89 % of control

## CC(C)CC(C=NCC(CCN1CCOCC1)(CC(C)C)c1cccc2ccccc12)(CCN1CCOCC1)c1cccc2ccccc12 (stereo unspecified)
[1]
  T/C: 94 % of control
dose: 200.0 mg/kg/injection, schedule: Q01DX009 (ip), vehicle: Klucel (hydroxypropylcellulose) (HPC)
  T/C: 90 % of control
dose: 400.0 mg/kg/injection, schedule: Q01DX009 (ip), vehicle: Klucel (hydroxypropylcellulose) (HPC)
  T/C: 92 % of control

## Cc1cc(C)c(C)c(NC(=O)NCCCl)c1C
dose: 100.0 mg/kg/injection, schedule: Q01DX001 (ip), vehicle: Klucel (hydroxypropylcellulose) (HPC)
  T/C: 92 % of control
[2]
  T/C: 88 % of control

## CCOC(=O)c1ccc(NC(=O)Nc2ccc(OC)cc2OC)cc1
dose: 12.5 mg/kg/injection, schedule: Q01DX009 (ip), vehicle: saline with Tween-80
  T/C: 94 % of control and 95 % of control
dose: 25.0 mg/kg/injection, schedule: Q01DX009 (ip), vehicle: saline with Tween-80
  T/C: 94 % of control and 103 % of control
dose: 50.0 mg/kg/injection, schedule: Q01DX009 (ip), vehicle: saline with Tween-80
  T/C: 95 % of control and 87 % of control
[3]
  T/C: 86 % of control
dose: 100.0 mg/kg/injection, schedule: Q04DX002 (ip), vehicle: saline with Tween-80
  T/C: 97 % of control
[4]
  T/C: 89 % of control
dose: 200.0 mg/kg/injection, schedule: Q04DX002 (ip), vehicle: saline with Tween-80
  T/C: 91 % of control
dose: 400.0 mg/kg/injection, schedule: Q01DX001 (ip), vehicle: saline with Tween-80
  T/C: 91 % of control
dose: 400.0 mg/kg/injection, schedule: Q04DX002 (ip), vehicle: saline with Tween-80
  T/C: 93 % of control

## O=C(O)CCCc1ccc2ccccc2n1
dose: 50.0 mg/kg/injection, schedule: Q01DX001 (ip), vehicle: alkali diluted with saline
  T/C: 101 % of control
dose: 100.0 mg/kg/injection, schedule: Q01DX001 (ip), vehicle: alkali diluted with saline
  T/C: 103 % of control
dose: 200.0 mg/kg/injection, schedule: Q01DX001 (ip), vehicle: alkali diluted with saline
  T/C: 97 % of control
dose: 400.0 mg/kg/injection, schedule: Q01DX001 (ip), vehicle: alkali diluted with saline
  T/C: 103 % of control

## Cc1nc2ccccc2[nH]c1=O
dose: 75.0 mg/kg/injection, schedule: Q04DX003 (ip), vehicle: saline
  T/C: 96 % of control
dose: 100.0 mg/kg/injection, schedule: Q01DX001 (ip), vehicle: other
  T/C: 97 % of control
dose: 150.0 mg/kg/injection, schedule: Q04DX003 (ip), vehicle: saline
  T/C: 100 % of control
dose: 200.0 mg/kg/injection, schedule: Q01DX001 (ip), vehicle: other
  T/C: 100 % of control
dose: 300.0 mg/kg/injection, schedule: Q04DX003 (ip), vehicle: saline
  T/C: 96 % of control
dose: 400.0 mg/kg/injection, schedule: Q01DX001 (ip), vehicle: other
  T/C: 93 % of control

## COc1ccc(C2(C#N)CC2)cc1
[5]
  T/C: 86 % of control
[6]
  T/C: 101 % of control
[7]
  T/C: 88 % of control
[8]
  T/C: 101 % of control
[9]
  T/C: 103 % of control
[10]
  T/C: 103 % of control

## Cc1c(C(=O)NN)sc2ccccc12
dose: 5.0 mg/kg/injection, schedule: Q01DX001 (ip), vehicle: saline
  T/C: 100 % of control
dose: 10.0 mg/kg/injection, schedule: Q01DX001 (ip), vehicle: saline
  T/C: 97 % of control
dose: 20.0 mg/kg/injection, schedule: Q01DX001 (ip), vehicle: saline
  T/C: 100 % of control
dose: 40.0 mg/kg/injection, schedule: Q01DX001 (ip), vehicle: saline
  T/C: 97 % of control
dose: 80.0 mg/kg/injection, schedule: Q01DX001 (ip), vehicle: saline
  T/C: 94 % of control

## O=S1(=O)C2CCCCC2(N2CCOCC2)C1c1ccccc1 (stereo unspecified)
dose: 66.0 mg/kg/injection, schedule: Q04DX003 (ip), vehicle: other
  T/C: 118 % of control
dose: 100.0 mg/kg/injection, schedule: Q01DX009 (ip), vehicle: other
  T/C: 97 % of control
dose: 100.0 mg/kg/injection, schedule: Q04DX003 (ip), vehicle: other
  T/C: 101 % of control and 202 % of control
dose: 150.0 mg/kg/injection, schedule: Q04DX003 (ip), vehicle: other
  T/C: 93 % of control
dose: 200.0 mg/kg/injection, schedule: Q01DX009 (ip), vehicle: other
  T/C: 97 % of control
dose: 200.0 mg/kg/injection, schedule: Q04DX003 (ip), vehicle: other
  T/C: 97 % of control
dose: 400.0 mg/kg/injection, schedule: Q01DX009 (ip), vehicle: other
  T/C: 100 % of control
dose: 400.0 mg/kg/injection, schedule: Q04DX003 (ip), vehicle: other
  T/C: 94 % of control

## CS(=O)(=O)OCc1c(O)c2c(c(O)c1COS(C)(=O)=O)C(=O)C=CC2=O
dose: 25.0 mg/kg/injection, schedule: Q01DX009 (ip), vehicle: water
  T/C: 94 % of control
dose: 50.0 mg/kg/injection, schedule: Q01DX009 (ip), vehicle: water
  T/C: 97 % of control

## OCCN=Cc1ccccc1O.OCCN=Cc1ccccc1O.[Ni]
dose: 75.0 mg/kg/injection, schedule: Q01DX001 (ip), vehicle: other
  T/C: 103 % of control
dose: 150.0 mg/kg/injection, schedule: Q01DX001 (ip), vehicle: other
  T/C: 106 % of control

## COc1ccc(OC)c2[nH]c(-c3ccccc3)cc12
dose: 100.0 mg/kg/injection, schedule: Q04DX002 (ip), vehicle: Klucel (hydroxypropylcellulose) (HPC)
  T/C: 96 % of control
dose: 200.0 mg/kg/injection, schedule: Q04DX002 (ip), vehicle: Klucel (hydroxypropylcellulose) (HPC)
  T/C: 105 % of control
dose: 400.0 mg/kg/injection, schedule: Q04DX002 (ip), vehicle: Klucel (hydroxypropylcellulose) (HPC)
  T/C: 93 % of control

## Cc1ccc(S(=O)(=O)N/N=C/C(O)C(O)C(O)CO)cc1 (stereo unspecified)
[5]
  T/C: 94 % of control
[6]
  T/C: 94 % of control
[7]
  T/C: 103 % of control
[8]
  T/C: 94 % of control
[9]
  T/C: 96 % of control
[10]
  T/C: 96 % of control

## CSC1=NCCS1
dose: 25.0 mg/kg/injection, schedule: Q01DX009 (ip), vehicle: Klucel (hydroxypropylcellulose) (HPC)
  T/C: 97 % of control
dose: 50.0 mg/kg/injection, schedule: Q01DX009 (ip), vehicle: Klucel (hydroxypropylcellulose) (HPC)
  T/C: 102 % of control
[1]
  T/C: 105 % of control
dose: 100.0 mg/kg/injection, schedule: Q01DX009 (ip), vehicle: carboxymethylcellulose (CMC)
  T/C: 111 % of control
dose: 200.0 mg/kg/injection, schedule: Q01DX009 (ip), vehicle: carboxymethylcellulose (CMC)
  T/C: 101 % of control

## COc1cccc(CN)c1
[6]
  T/C: 99 % of control
[8]
  T/C: 100 % of control
[10]
  T/C: 94 % of control

## CN(N=O)C(=O)NCCCl
dose: 0.36 mg/kg/injection, schedule: Q01DX Z (ip), vehicle: carboxymethylcellulose (CMC)
  T/C: 104 % of control
dose: 0.78 mg/kg/injection, schedule: Q01DX Z (ip), vehicle: carboxymethylcellulose (CMC)
  T/C: 95 % of control
dose: 1.56 mg/kg/injection, schedule: Q01DX Z (ip), vehicle: carboxymethylcellulose (CMC)
  T/C: 98 % of control
dose: 3.12 mg/kg/injection, schedule: Q01DX Z (ip), vehicle: carboxymethylcellulose (CMC)
  T/C: 102 % of control
dose: 6.25 mg/kg/injection, schedule: Q01DX Z (ip), vehicle: carboxymethylcellulose (CMC)
  T/C: 102 % of control
dose: 12.5 mg/kg/injection, schedule: Q01DX001 (ip), vehicle: Klucel (hydroxypropylcellulose) (HPC)
  T/C: 103 % of control
dose: 12.5 mg/kg/injection, schedule: Q01DX Z (ip), vehicle: carboxymethylcellulose (CMC)
  T/C: 101 % of control
dose: 25.0 mg/kg/injection, schedule: Q01DX001 (ip), vehicle: Klucel (hydroxypropylcellulose) (HPC)
  T/C: 103 % of control
dose: 25.0 mg/kg/injection, schedule: Q01DX Z (ip), vehicle: carboxymethylcellulose (CMC)
  T/C: 104 % of control
dose: 75.0 mg/kg/injection, schedule: Q01DX Z (ip), vehicle: carboxymethylcellulose (CMC)
  T/C: 119 % of control
[2]
  T/C: 118 % of control

## CCCCN(CCCC)C(=O)N(CCCC)CCCC
dose: 50.0 mg/kg/injection, schedule: Q01DX001 (ip), vehicle: saline with Tween-80
  T/C: 98 % of control
[3]
  T/C: 107 % of control
[4]
  T/C: 101 % of control
